# According to article PMC11374673, “Discovery of isoquinoline sulfonamides as allosteric gyrase inhibitors with activity against fluoroquinolone-resistant bacteria” (Nature Chemistry, 2024):
# Values joined by “and” are separate entries in the source; they are usually repeats but may differ in a detail not shown here. Equal entries are not always repeated.
# Test system: E. coli W3110
# Test: Checkerboard assay with PMBN
# Details: for Checkerboard well reading (growth), Average values: average of 3 wells; for Checkerboard well reading (growth): single wells (triplicate)
# [1] = LEI-801 0.78125 µM + PMBN 0.5 µM
# [2] = LEI-801 0.78125 µM + PMBN 16 µM
# [3] = LEI-801 0.78125 µM + PMBN 32 µM
# [4] = LEI-801 1.5625 µM + PMBN 0.5 µM
smiles,measurement,setting,value
O=S(=O)(NC[C@H]1CC[C@@H](c2ccc(-c3ccc(F)nc3)cc2)N1)c1cccc2cnccc12 [LEI-801],MIC,"Escherichia coli, W3110",200 µM
same,"Checkerboard well reading (growth), Average values",LEI-801 0.78125 µM + PMBN 0 µM,0.7994
same,Checkerboard well reading (growth),LEI-801 0.78125 µM + PMBN 0 µM,0.8278 and 0.8 and 0.7705
same,"Checkerboard well reading (growth), Average values",[1],0.7351
same,Checkerboard well reading (growth),[1],0.7319 and 0.7576 and 0.7157
same,"Checkerboard well reading (growth), Average values",LEI-801 0.78125 µM + PMBN 1 µM,0.8267
same,Checkerboard well reading (growth),LEI-801 0.78125 µM + PMBN 1 µM,0.8444 and 0.8247 and 0.811
same,"Checkerboard well reading (growth), Average values",LEI-801 0.78125 µM + PMBN 2 µM,0.8646
same,Checkerboard well reading (growth),LEI-801 0.78125 µM + PMBN 2 µM,0.8699 and 0.8873 and 0.8367
same,"Checkerboard well reading (growth), Average values",LEI-801 0.78125 µM + PMBN 4 µM,0.6877
same,Checkerboard well reading (growth),LEI-801 0.78125 µM + PMBN 4 µM,0.7078 and 0.6767 and 0.6785
same,"Checkerboard well reading (growth), Average values",LEI-801 0.78125 µM + PMBN 8 µM,0.5094
same,Checkerboard well reading (growth),LEI-801 0.78125 µM + PMBN 8 µM,0.4316 and 0.5477 and 0.5488
same,"Checkerboard well reading (growth), Average values",[2],0.3746
same,Checkerboard well reading (growth),[2],0.3718 and 0.3921 and 0.3599
same,"Checkerboard well reading (growth), Average values",[3],0.3716
same,Checkerboard well reading (growth),[3],0.3691 and 0.3426 and 0.4032
same,"Checkerboard well reading (growth), Average values",LEI-801 1.5625 µM + PMBN 0 µM,0.7861
same,Checkerboard well reading (growth),LEI-801 1.5625 µM + PMBN 0 µM,0.8385 and 0.7794 and 0.7404
same,"Checkerboard well reading (growth), Average values",[4],0.7438
same,Checkerboard well reading (growth),[4],0.7318 and 0.7541 and 0.7454
same,"Checkerboard well reading (growth), Average values",LEI-801 1.5625 µM + PMBN 1 µM,0.7641
same,Checkerboard well reading (growth),LEI-801 1.5625 µM + PMBN 1 µM,0.7579 and 0.7961 and 0.7382
same,"Checkerboard well reading (growth), Average values",LEI-801 1.5625 µM + PMBN 2 µM,0.7789
same,Checkerboard well reading (growth),LEI-801 1.5625 µM + PMBN 2 µM,0.7943 and 0.7704 and 0.772
same,"Checkerboard well reading (growth), Average values",LEI-801 1.5625 µM + PMBN 4 µM,0.5724
same,Checkerboard well reading (growth),LEI-801 1.5625 µM + PMBN 4 µM,0.635 and 0.5325 and 0.5498
same,"Checkerboard well reading (growth), Average values",LEI-801 1.5625 µM + PMBN 8 µM,0.3746
same,Checkerboard well reading (growth),LEI-801 1.5625 µM + PMBN 8 µM,0.3243 and 0.3533 and 0.4462
same,"Checkerboard well reading (growth), Average values",LEI-801 1.5625 µM + PMBN 16 µM,0.3394
same,Checkerboard well reading (growth),LEI-801 1.5625 µM + PMBN 16 µM,0.3897 and 0.339 and 0.2896
same,"Checkerboard well reading (growth), Average values",LEI-801 1.5625 µM + PMBN 32 µM,0.3074
same,Checkerboard well reading (growth),LEI-801 1.5625 µM + PMBN 32 µM,0.2616 and 0.2961 and 0.3644
same,"Checkerboard well reading (growth), Average values",LEI-801 3.125 µM + PMBN 0 µM,0.7892
same,"Checkerboard well reading (growth), Average values",LEI-801 3.125 µM + PMBN 0.5 µM,0.6976
same,"Checkerboard well reading (growth), Average values",LEI-801 3.125 µM + PMBN 1 µM,0.7008
same,"Checkerboard well reading (growth), Average values",LEI-801 3.125 µM + PMBN 2 µM,0.5725
same,"Checkerboard well reading (growth), Average values",LEI-801 3.125 µM + PMBN 4 µM,0.4871
same,"Checkerboard well reading (growth), Average values",LEI-801 3.125 µM + PMBN 8 µM,0.2805
same,"Checkerboard well reading (growth), Average values",LEI-801 3.125 µM + PMBN 16 µM,0.2397
same,"Checkerboard well reading (growth), Average values",LEI-801 3.125 µM + PMBN 32 µM,0.2242
same,"Checkerboard well reading (growth), Average values",LEI-801 6.25 µM + PMBN 0 µM,0.7739
same,"Checkerboard well reading (growth), Average values",LEI-801 6.25 µM + PMBN 0.5 µM,0.6373
same,"Checkerboard well reading (growth), Average values",LEI-801 6.25 µM + PMBN 1 µM,0.4799
same,"Checkerboard well reading (growth), Average values",LEI-801 6.25 µM + PMBN 2 µM,0.2823
same,"Checkerboard well reading (growth), Average values",LEI-801 6.25 µM + PMBN 4 µM,0.1833
same,"Checkerboard well reading (growth), Average values",LEI-801 6.25 µM + PMBN 8 µM,0.1357
same,"Checkerboard well reading (growth), Average values",LEI-801 6.25 µM + PMBN 16 µM,0.1386
same,"Checkerboard well reading (growth), Average values",LEI-801 6.25 µM + PMBN 32 µM,0.1521
same,"Checkerboard well reading (growth), Average values",LEI-801 12.5 µM + PMBN 0 µM,0.6968
same,"Checkerboard well reading (growth), Average values",LEI-801 12.5 µM + PMBN 0.5 µM,0.5454
same,"Checkerboard well reading (growth), Average values",LEI-801 12.5 µM + PMBN 1 µM,0.4004
same,"Checkerboard well reading (growth), Average values",LEI-801 12.5 µM + PMBN 2 µM,0.1564
same,Checkerboard well reading (growth),LEI-801 12.5 µM + PMBN 2 µM,0.1441 and 0.1568 and 0.1684
same,"Checkerboard well reading (growth), Average values",LEI-801 12.5 µM + PMBN 4 µM,0.1485
